# Key:
# [1] = Pharmacokinetic studies in clinical trial subjects after oral CDB-4124; format: in vivo, human; conditions: for maximum concentration for the 12.5 mg dose as percentage of the 50 mg dose: oral CDB-4124
# Experimental: (§1) The maximum concentrations of CDB-4124 and its mono-demethylated metabolite (CDB-4453) for the 12.5 mg dose were 25% of the 50 mg dose. All liver toxicities resolved in those women that returned for safety follow-ups, including those subjects that developed liver-associated serious adverse effects (SAEs).
# Pharmacokinetic studies performed on participating subjects detected a high Cmax and a Tmax at 1-2 hours following administration. Large quantities of the monodemethylated metabolite of CDB-4124 were also detected, clearly indicating first pass metabolism of the antiprogestin. […] Metabolism of CDB-4124 by the liver provides the opportunity for liver damage and greatly reduces the concentration of the antiprogestin before it reaches the systemic circulation. Thus, alternative routes of administration of antiprogestins that avoid first pass metabolism such as, without limitation, intravenous, intramuscular, and sublingual, should allow antiprogestins to be absorbed directly into the systemic circulation and thereby provide a method for treating progesterone-dependent conditions while avoiding liver toxicity. Administration routes which avoid first pass metabolism may also require less drug per dose to achieve the same therapeutic benefit relative to oral administration.
# [2] = Oral versus vaginal pharmacokinetics in beagles (25 mg); format: in vivo; conditions: for metabolism after oral administration: oral micronized powder; for metabolism after vaginal administration / peak plasma concentration (Cmax): vaginal suppository
# Experimental: FIG. 1 illustrates a comparison of the Cmax (peak serum concentration) and area under the curve (AUC) following oral and vaginal administration of CDB-4124 or CDB-4453 at a 25 mg dose in beagles.
# Beagles were administered 25 mg of CDB-4124 or CDB-4453 (the monodemethylated metabolite of CDB-4124) formulated as either a micronized powder or a vaginal suppository.
# [3] = Clinical trials of daily oral Proellex (CDB-4124): liver toxicity / liver enzymes; format: in vivo, human; conditions: for subjects with liver enzyme elevations reported as SAEs: of seven SAEs
# Experimental: as §1
# To date, over 600 patients, including women with confirmed cases of endometriosis or uterine fibroids, have participated in double blind and open label clinical trials in which patients were administered daily oral capsules containing doses of 12.5 mg, 25 mg or 50 mg CDB-4124 (Proellex) for over one month. Of these patients, about 500 received Proellex and about 130 received a placebo. Of the patients receiving Proellex, about 190 received a dose of 50 mg CDB-4124 per day, about 260 received a dose of 25 mg CDB-4124 per day and about 55 received a dose of 12.5 mg per day.
# Liver enzymes were frequently monitored in participating subjects. The liver enzyme level at which the clinical trials would be discontinued was set at an increase in liver aminotransferases greater than, or equal to three times the Upper Limit of Normal (≧3×ULN).
# Of the nine subjects with a confirmed increase in liver enzymes ≧3×ULN, seven were severe enough elevations to be reported to the FDA as SAEs. One of these seven subjects had been receiving a dose of 25 mg CDB-4124 per day; the remaining six subjects had been receiving a dose of 50 mg CDB-4124 per day. Liver enzymes ≧3×ULN persisted in five of the nine subjects with a confirmed increase in liver enzymes ≧3×ULN. These five subjects had previously been dosed with the 50 mg dose. One of these subjects is receiving oral medication for treatment of their liver condition. Clinical trials involving CDB-4124 at all doses were voluntarily suspended as a result of these SAEs and were subsequently placed on clinical hold by the United States Food and Drug Administration for safety reasons.
# [4] = system: primary cultures of human and animal hepatocytes; test: Metabolism in primary cultures of hepatocytes; format: in vitro ADME; conditions: primary hepatocyte cultures
# [5] = system: DMBA-induced breast tumors; test: DMBA-induced breast tumor model, subcutaneous injection; format: in vivo, rodents
# Experimental: Pre-clinical studies were performed on rodents with breast tumors induced by 7,12-Dimethylbenz(a)anthracene (DMBA).
# [6] = Cmax after vaginal administration in beagles extrapolated to humans; format: in vivo; conditions: for predicted Cmax for vaginal administration as percentage of the same oral dose: humans, extrapolated from beagles
# Experimental: FIG. 2 illustrates the actual Cmax observed for Proellex (CDB-4124) and its monodemethylated metabolite CDB-4453, following oral administration of CDB-4124 at 12.5 mg, 25 mg and 50 mg doses as well as the projected Cmax for 3 mg, 6 mg and 9 mg doses. FIG. 2 also illustrates the actual Cmax observed for Proellex (CDB-4124) and its monodemethylated metabolite CDB-4453, following vaginal administration of CDB-4124 at 12.5 mg, 25 mg and 50 mg doses.
# The maximum circulating concentrations (Cmax) of CDB-4124 obtained following vaginal administration to beagles were extrapolated to humans for the 12.5 mg, 25 mg and 50 mg doses actually administered during the Phase III clinical studies.
# For example, equivalent antiprogestational activity at the uterus is observed for a 50 mg oral dose of CDB-4124 and a 12.5 mg vaginal dose; however, the Cmax observed with a 12.5 mg vaginal dose is only 2% that observed with a 50 mg oral dose. […] Because a high concentration of the drug in the systemic circulation (and associated first pass metabolism of the drug) is not reached by local administration, avoidance of the severe liver toxicity observed in a small percentage of subjects following oral administration of CDB-4124 in previous Phase III clinical studies at doses of 25 and 50 mg is a surprising advantage of administering the drug locally. Similar advantages should inure to local administration of other antiprogestins.
# [7] = system: progesterone-induced endometrial proliferation; test: Anti-Clauberg study, subcutaneous versus oral; format: in vivo, rabbits
# Description: FIG. 3 illustrates a comparison of the inhibition of progesterone-induced endometrial proliferation in estradiol-primed immature rabbits following subcutaneous injection and oral administration of CDB-4124.
# To determine whether the low circulating levels of CDB-4124 when administered locally could have any impact predictive of efficacy, an anti-Clauberg study was run in which immature estradiol-primed rabbits were coadministered progesterone and various doses of CDB-4124 by either subcutaneous or oral administration. At least 3 different highly trained individuals evaluated the rabbit uterus for glandular growth, for complexity and overall progesterone-induced “development”. The inhibition (by percentage) of progesterone-induced endometrial proliferation at each dose was assayed. […] However, maximal inhibition required a ˜8-fold increase in dosage when administered orally (i.e. 8 mg/kg). Importantly 8 mg/kg corresponds closely to the 50 mg/day dose of CDB-4124 administered to the female subjects described in Example 3.
# [8] = system: progesterone-induced endometrial proliferation; test: Anti-Clauberg study, vaginal versus oral (McPhail index); format: in vivo, rabbits
# Experimental: FIG. 4 compares the antiprogestational effects of three doses of CDB-4124 when delivered orally versus when delivered to the vaginal mucosa of estradiol-primed immature rabbits in the presence of progesterone, as measured by a decrease in the McPhail index. Treatment with progesterone alone (vehicle control) provided a baseline measurement of progestational activity.
# Another anti-Clauberg study was run in which immature estradiol-primed rabbits were administered progesterone alone (vehicle control) or were coadministered progesterone and three doses of CDB-4124 by either vaginal or oral administration. The inhibition of progesterone-induced endometrial proliferation at each dose was assayed. FIG. 3 illustrates the decrease in the McPhail index following increasing doses of CDB-4124 administered by either route. Maximal inhibition (i.e. a decrease in the McPhail index to 1.5) occurred at 0.2 mg/kg CDB-4124 when administered vaginally, compared to 0.8 mg/kg when administered orally.
# uterine fibroids = test: Single blind study of vaginal CDB-4124 in females with uterine fibroids; format: in vivo, human; conditions: vaginal 12 mg daily
# Experimental: Seven human females with uterine fibroids have completed 4 months of treatment as part of a single blind study. These females were vaginally administered a daily dose of 12 mg CDB-4124 for a period of four months, with dosing initiated during the luteal phase of the females' menstrual cycles. At the end of the four month treatment period, all seven females stopped menstruating and all reported a Pictural Blood Loss Assessment Chart (PBAC) score of 0 (p=0.002). A statistically significant and highly clinically meaningful reduction in Uterine Fibroid Symptom Quality of Life Survey (UFSQOL) scores was also observed. The mean UFSQOL score at baseline was 43.8 and at the end of the four month treatment period the mean score was 1.33 (p=0.001). […] As a reference, women with fibroids typically score 40 or higher, whereas women without fibroids report scores of approximately 20.
# Change in fibroid volume at the end of the four month treatment period determined by magnetic resonance imagining (MRI) was assessed and a statistically significant (chi square analysis) median reduction of total fibroid volume of 36% was observed.
# [9] = Oral study, 1-12 mg CDB-4124 for 10 weeks; format: in vivo
# Experimental: (§2) In an oral study, doses of 1, 3, 6, 9 and 12 mg of CDB-4124 were administered for a period of 10 weeks. […] Cessation of menses directly correlated to efficacy of an oral dose in both uterine fibroids and endometriosis.
# [10] = Pharmacokinetic analysis of vaginal administration of 12 mg CDB-4124; format: in vivo, human
# Experimental: as §2
# Thus, the onset of amenorrhea is delayed when the drug is administered vaginally, necessitating that the drug be vaginally administered during subsequent menstruations, which tends to reduce absorption of the drug and is unpleasant and technically challenging for the patient. The methods of the present invention provide a solution to this problem by providing a brief period of oral administration, preceding and overlapping vaginal administration, which expedites the onset of amenorrhea while retaining the benefits of vaginal administration.
# [11] = system: hypothalamic pituitary axis (HPA); test: Low-dose oral CDB-4124: effect on ovulation; format: in vivo; conditions: about 3-25 mg
# Description: Contemporaneous systemic and local administration of antiprogestins to treat hormonally responsive breast cancer (i.e. the breast tumor contains estrogen and/or progesterone receptor) has advantages as well.
smiles,measurement,setting,value
"CNc1ccc([C@H]2C[C@@]3(C)[C@@H](CC[C@]3(OC(C)=O)C(=O)COC)[C@@H]3CCC4=CC(=O)CCC4=C32)cc1 [CDB-4453, 21-methoxy-17α-acetoxy-11β-(4-N-methylaminophenyl)-19-norpregna-4,9-diene-3,20-dione]",maximum concentration for the 12.5 mg dose as percentage of the 50 mg dose,[1],25%
same,"systemic exposure (AUC), vaginal vs. oral",[2],much lower when administered locally
same,metabolism after oral administration,[2],rapidly metabolized
same,metabolism after vaginal administration,[2],metabolized slowly
same,peak plasma concentration (Cmax),[2],relatively low
"COCC(=O)[C@@]1(OC(C)=O)CC[C@H]2[C@@H]3CCC4=CC(=O)CCC4=C3[C@@H](c3ccc(N(C)C)cc3)C[C@@]21C [CDB-4124, 21-methoxy-17α-acetoxy-11β-(4 N, N-dimethylaminophenyl)-19-norpregna-4,9-diene-3,20-dione]",adverse liver toxicity signals,[3]; 12.5 mg,no adverse liver toxicity signals different from placebo
same,subjects with liver enzyme elevations reported as SAEs,[3]; 25 mg per day,One
same,frequency and intensity of liver effects relative to 50 mg/day,[3]; 25 mg/day,significantly lower in frequency and intensity
same,subjects in whom liver enzymes ≧3×ULN persisted,"[3]; 50 mg dose, of nine confirmed",five
same,subjects with liver enzyme elevations reported as SAEs,[3]; 50 mg per day,six
same,women exhibiting severe liver toxicity,[3]; 50 mg/day,3-4%
same,subjects with confirmed increase in liver enzymes ≧3×ULN,"[3]; all doses (12.5, 25, 50 mg/day), confirmed by repeat test in 48 hours",nine
same,Tmax,[1]; following oral administration,1 to 2 h
same,maximum concentration for the 12.5 mg dose as percentage of the 50 mg dose,[1],25%
same,formation of mono-demethylated metabolite,[4],rapidly produce the mono-demethylated metabolite
same,effect on quantity and size of DMBA-induced breast tumors,[5],effective in reducing the quantity and size of DMBA-induced breast tumors
same,"systemic exposure (AUC), vaginal vs. oral",[2],much lower when administered locally
same,metabolism after oral administration,[2],rapidly metabolized
same,metabolism after vaginal administration,[2],metabolized slowly
same,peak plasma concentration (Cmax),[2],relatively low
same,predicted Cmax for vaginal administration as percentage of the same oral dose,[6]; 12.5 mg dose,approximately 6.5%
same,predicted Cmax for vaginal administration as percentage of the same oral dose,[6]; 50 mg dose,approximately 2%
same,Cmax with a 12.5 mg vaginal dose as percentage of a 50 mg oral dose,"[6]; in vivo, po",2%
same,dose giving maximal inhibition of progesterone-induced endometrial proliferation,[7]; oral,8 mg/kg
same,"increase in dosage required for maximal inhibition, oral vs. subcutaneous","[7]; rabbit, in vivo",~8 fold
same,dose giving maximal inhibition of progesterone-induced endometrial proliferation,[7]; subcutaneous,less than 1 mg/kg
same,McPhail index at maximal inhibition,[8]; 0.2 mg/kg vaginal or 0.8 mg/kg oral,1.5
same,dose giving maximal inhibition (decrease in McPhail index),[8]; oral,0.8 mg/kg
same,antiprogestational activity of vaginal delivery relative to the same oral dose,"[8]; rabbit, in vivo, po",four
same,dose giving maximal inhibition (decrease in McPhail index),[8]; vaginal,0.2 mg/kg
same,median reduction of total fibroid volume (MRI),uterine fibroids; end of four months,36%
same,Pictural Blood Loss Assessment Chart (PBAC) score,"uterine fibroids; end of four months, p=0.002",0
same,females who stopped menstruating,"uterine fibroids; end of four months, seven females",seven
same,mean Uterine Fibroid Symptom Quality of Life Survey (UFSQOL) score,"uterine fibroids; end of four months, baseline 43.8, p=0.001",1.33
same,females no longer experiencing any fibroid related symptoms,"uterine fibroids; four months, of seven",six
same,lowest dose inducing reliable cessation of menses,[9]; oral,3 mg
same,tolerability,"[9]; oral 1, 3, 6, 9 and 12 mg",well tolerated
same,maximum exposure (Cmax) relative to a 50 mg oral dose,[10]; vaginal 12 mg,about 1/100
same,systemic exposure (AUC) relative to an equivalent oral dose,[10]; vaginal 12 mg,about ⅙
same,"build-up of drug concentration, vaginal relative to oral",[10]; vaginal administration,build slowly
same,suppression of ovulation,[11],partially but not completely suppress ovulation
